Laboratory results taken from ChEMBL document CHEMBL6103537 (J Med Chem, 2025).
The source made the active and inactive calls. The calls are words filed in the database; no cut-off is given here.

Experiments:
[1] = Stability in monkey plasma assessed as parent compound remaining measured at 15 mins by LC-MS/MS analysis; assay type: ADME, cell-free, Macaca mulatta; settings: rhesus monkey, read-out: Stability
[2] = Metabolic stability in dog liver microsome assessed as parent compound remaining measured at 5 mins in presence of NADPH by LC-MS/MS analysis; assay type: ADME, Canis lupus familiaris; settings: liver microsomes, read-out: Stability
[3] = Stability in monkey plasma assessed as parent compound remaining measured at 5 mins by LC-MS/MS analysis; assay type: ADME, cell-free, Macaca mulatta; settings: rhesus monkey, read-out: Stability
[4] = Metabolic stability in rat liver microsome assessed as parent compound remaining measured at 15 mins in presence of NADPH by LC-MS/MS analysis; assay type: ADME; settings: liver microsomes, read-out: Stability
[5] = biological target: T1, Protein cereblon/Signal transducer and activator of transcription 5A/Signal transducer and activator of transcription 5B (Homo sapiens) (UniProt P42229+P51692+Q96SW2); experiment: PROTAC activity at STAT5/CRBN in human L-1236 cells assessed as reduction in STAT5 level at 10 uM incubated for 24 hrs by Western blot analysis; assay type: cell-based
[6] = Stability in dog plasma assessed as parent compound remaining measured at 120 mins by LC-MS/MS analysis; assay type: ADME, cell-free, Canis lupus familiaris; settings: read-out: Stability
[7] = Metabolic stability in human liver microsome assessed as parent compound remaining measured at 5 mins in presence of NADPH by LC-MS/MS analysis; assay type: ADME; settings: liver microsomes, read-out: Stability
[8] = Metabolic stability in rat liver microsome assessed as half life measured upto 60 mins in presence of NADPH by LC-MS/MS analysis; assay type: ADME; settings: liver microsomes
[9] = biological target: Cereblon/Ikaros (Homo sapiens) (UniProt Q96SW2+Q13422); experiment: PROTAC activity at CRBN/IKZF1 in human Jurkat cells assessed as degradation of IKZF1 protein at 0.01 to 10 uM incubated for 20 hrs by Western blotting analysis; assay type: cell-based; settings: dose 0.01-10 µM
PBMC = experiment: Downregulation of STAT4 level in human PBMC cells at 5 uM incubated for 18 hrs by Western blot analysis relative to control; assay type: functional, cell-based
[10] = biological target: T2, Protein cereblon/Signal transducer and activator of transcription 2 (Homo sapiens) (UniProt Q96SW2+P52630); experiment: PROTAC activity at STAT2/CRBN in human MV4-11 cells assessed as reduction in STAT2 level at 2 uM incubated for 12 hrs by Western blot analysis relative to control; assay type: cell-based
[11] = biological target: T2, Protein cereblon/Signal transducer and activator of transcription 2 (Homo sapiens); experiment: PROTAC activity at STAT2/CRBN in human L-1236 cells assessed as reduction in STAT2 level at 10 uM incubated for 24 hrs by Western blot analysis; assay type: cell-based
[12] = Metabolic stability in monkey liver microsome assessed as parent compound remaining measured at 30 mins in presence of NADPH by LC-MS/MS analysis; assay type: ADME, Macaca mulatta; settings: rhesus monkey, liver microsomes, read-out: Stability
[13] = Stability in rat plasma assessed as parent compound remaining measured at 15 mins by LC-MS/MS analysis; assay type: ADME, cell-free; settings: read-out: Stability
[14] = Stability in mouse plasma assessed as parent compound remaining measured at 15 mins by LC-MS/MS analysis; assay type: ADME, cell-free; settings: read-out: Stability
[15] = biological target: T3, Protein cereblon/Signal transducer and activator of transcription 3 (Homo sapiens) (UniProt P40763+Q96SW2); experiment: PROTAC activity at STAT3/CRBN in human L-1236 cells assessed as reduction in STAT3 level at 10 uM incubated for 24 hrs by Western blot analysis; assay type: cell-based
[16] = biological target: Protein cereblon/Zinc finger protein Aiolos (Homo sapiens) (UniProt Q96SW2+Q9UKT9); experiment: PROTAC activity at CRBN/IKZF3 in human Jurkat cells assessed as degradation of IKZF3 protein at 0.01 to 10 uM incubated for 20 hrs by Western blotting analysis; assay type: cell-based; settings: dose 0.01-10 µM
[17] = biological target: T3, Protein cereblon/Signal transducer and activator of transcription 3 (Homo sapiens); experiment: PROTAC activity at STAT3/CRBN in human PBMC cells assessed as reduction in STAT3 level at 10 uM incubated for 18 hrs by Western blot analysis relative to control; assay type: cell-based
[18] = Stability in mouse plasma assessed as half life measured upto 60 mins by LC-MS/MS analysis; assay type: ADME, cell-free
[19] = biological target: T1, Protein cereblon/Signal transducer and activator of transcription 5A/Signal transducer and activator of transcription 5B (Homo sapiens); experiment: PROTAC activity at STAT5 at residue Y694/CRBN in human MV4-11 cells assessed as reduction in STAT5 level at upto 10 uM incubated for 12 hrs by Western blot analysis; assay type: cell-based
[20] = biological target: T4, Protein cereblon/Signal transducer and activator of transcription 6 (Homo sapiens, UniProt P42226+Q96SW2); experiment: PROTAC activity at STAT6/CRBN in human PBMC cells assessed as reduction in STAT6 level at 5 uM incubated for 18 hrs by Western blot analysis relative to control; assay type: cell-based; design: scale not given: the % may be the effect or the level left
[21] = Metabolic stability in dog liver microsome assessed as parent compound remaining measured at 15 mins in presence of NADPH by LC-MS/MS analysis; assay type: ADME, Canis lupus familiaris; settings: liver microsomes, read-out: Stability
[22] = Stability in dog plasma assessed as parent compound remaining measured at 5 mins by LC-MS/MS analysis; assay type: ADME, cell-free, Canis lupus familiaris; settings: read-out: Stability
[23] = Metabolic stability in mouse liver microsome assessed as half life measured upto 60 mins in presence of NADPH by LC-MS/MS analysis; assay type: ADME; settings: liver microsomes
[24] = Metabolic stability in monkey liver microsome assessed as parent compound remaining measured at 45 mins in presence of NADPH by LC-MS/MS analysis; assay type: ADME, Macaca mulatta; settings: rhesus monkey, liver microsomes, read-out: Stability
[25] = biological target: Protein cereblon/Signal transducer and activator of transcription 1-alpha/beta (Homo sapiens) (UniProt P42224+Q96SW2); experiment: PROTAC activity at STAT1/CRBN in human L-1236 cells assessed as reduction in STAT1 level at 10 uM incubated for 24 hrs by Western blot analysis; assay type: cell-based
[26] = Stability in human plasma assessed as parent compound remaining measured at 120 mins by LC-MS/MS analysis; assay type: ADME, cell-free; settings: read-out: Stability
[27] = Metabolic stability in monkey liver microsome assessed as parent compound remaining measured at 5 mins in presence of NADPH by LC-MS/MS analysis; assay type: ADME, Macaca mulatta; settings: rhesus monkey, liver microsomes, read-out: Stability
[28] = Stability in rat plasma assessed as parent compound remaining measured at 30 mins by LC-MS/MS analysis; assay type: ADME, cell-free; settings: read-out: Stability
[29] = Stability in mouse plasma assessed as parent compound remaining measured at 30 mins by LC-MS/MS analysis; assay type: ADME, cell-free; settings: read-out: Stability
[30] = Downregulation of AKR7A3 level in human PBMC cells at 5 uM incubated for 18 hrs by Western blot analysis relative to control; assay type: functional
[31] = Metabolic stability in dog liver microsome assessed as parent compound remaining measured at 30 mins in presence of NADPH by LC-MS/MS analysis; assay type: ADME, Canis lupus familiaris; settings: liver microsomes, read-out: Stability
[32] = Metabolic stability in rat liver microsome assessed as parent compound remaining measured at 5 mins in presence of NADPH by LC-MS/MS analysis; assay type: ADME; settings: liver microsomes, read-out: Stability
[33] = biological target: T4, Protein cereblon/Signal transducer and activator of transcription 6; experiment: PROTAC activity at STAT6/CRBN in human MV4-11 cells assessed as reduction in STAT6 level at 5 uM incubated for 12 hrs by Western blot analysis relative to control; assay type: cell-based
[34] = Stability in monkey plasma assessed as parent compound remaining measured at 30 mins by LC-MS/MS analysis; assay type: ADME, cell-free, Macaca mulatta; settings: rhesus monkey, read-out: Stability
[35] = Metabolic stability in rat liver microsome assessed as parent compound remaining measured at 30 mins in presence of NADPH by LC-MS/MS analysis; assay type: ADME; settings: liver microsomes, read-out: Stability
[36] = Stability in monkey plasma assessed as parent compound remaining measured at 60 mins by LC-MS/MS analysis; assay type: ADME, cell-free, Macaca mulatta; settings: rhesus monkey, read-out: Stability

CC(C)(C)[C@H](NC(=O)c1cc2cc(C(F)(F)P(=O)(O)O)ccc2s1)C(=O)N1C[C@@H](OCCCCCC#Cc2cccc3c2CN(C2CCC(=O)NC2=O)C3=O)C[C@H]1C(=O)N1CCO[C@H](c2ccccc2)C1 (some centres not stated)
remaining at 0.25 h [1]: 111% | remaining at 5 min [2]: 97% | remaining at 5 min [3]: 82% | remaining at 0.25 h [4]: 98% | Activity [5]: No effect | remaining at 2 h [6]: 67% | remaining at 5 min [7]: 94% | half-life [8]: > 2 h | Activity [9]: Active | Activity (PBMC): inactive | Emax [10]: < 40% | Activity [11]: No effect | remaining at 0.5 h [12]: 70% | remaining at 0.25 h [13]: 96% | remaining at 0.25 h [14]: 100% | Activity [15]: No effect | Activity [16]: No effect | Activity [17]: No effect | half-life [18]: > 2 h | Activity [19]: No effect | Activity [20]: 79% | remaining at 0.25 h [21]: 97% | remaining at 5 min [22]: 82% | half-life [23]: > 2 h | remaining at 0.75 h [24]: 61% | Activity [25]: No effect | remaining at 2 h [26]: 74% | remaining at 5 min [27]: 95% | remaining at 0.5 h [28]: 85% | remaining at 0.5 h [29]: 96% | Activity [30]: 51% | remaining at 0.5 h [31]: 95% | remaining at 5 min [32]: 99% | Emax [33]: > 95% | remaining at 0.5 h [34]: 91% | remaining at 0.5 h [35]: 96% | remaining at 1 h [36]: 81%
